We go through 26 compounds from patent US8815853B2, “Pyrimidinone derivatives, preparation thereof and pharmaceutical use thereof” (Sanofi, priority 2010, dated 2014).

The target of series [1] is T1, Vps34 (Homo sapiens, UniProt Q8NEB9).
T1 construct: purchased Invitrogen PV5126
In words: Phosphorylation of phosphatidylinositol (PI) with Vps34 in vitro, ADP detected by TR-FRET (HTRF Transcreener ADP kit). The format is biochemical. Particulars: 10 μM ATP, 55 μg/mL PI, about 3 nM of Vps34, 1 hour at room temperature; absolute CI50, average of 2 independent experiments; read-out: VPS34 CI 50. The procedure:
Study of the Phosphorylation of Phosphatidylinositol (PI) with Vps34 In Vitro
This test is based on the detection of the ADP produced during phosphorylation of PI with Bps34 in the presence of ATP. ADP is detected by TR-FRET (Time resolved—Fluorescence Resonance Energy transfer) by using the Transcreener kit marketed by Cisbio (HTRF® Transcreener® ADP, reference 62ADPPEB).
The reaction is started with 10 μL of an ATP solution (Sigma A7699) in a buffer A and lasts for 1 hour at room temperature. […] The enzyme amount is adapted to each batch so as to form about 2 μM of ADP during the reaction. In parallel, an ADP and ATP range giving the possibility of calibration results is prepared according to the indications of the kit. Controls not containing any enzyme (negative control) or not containing any molecules (positive control) are also prepared in parallel. […] Fluorescence emission is detected on a Rubystar apparatus at 620 and 665 nm. The signal ratio is calculated by dividing the 665 nm signal by the 620 nm signal and then by multiplying by 10,000. The signal ratios are converted into an ADP concentration by using the calibration range and according to the instructions of the kit. The percentages of inhibition of the molecules are calculated relatively to the positive controls according to the formula (1−signal ratio of the molecule/signal ratio of the positive control)×100. […] With 2 independent experiments it is possible to calculate the average of the CI50s.

T1 sequence (Q8NEB9 whole entry): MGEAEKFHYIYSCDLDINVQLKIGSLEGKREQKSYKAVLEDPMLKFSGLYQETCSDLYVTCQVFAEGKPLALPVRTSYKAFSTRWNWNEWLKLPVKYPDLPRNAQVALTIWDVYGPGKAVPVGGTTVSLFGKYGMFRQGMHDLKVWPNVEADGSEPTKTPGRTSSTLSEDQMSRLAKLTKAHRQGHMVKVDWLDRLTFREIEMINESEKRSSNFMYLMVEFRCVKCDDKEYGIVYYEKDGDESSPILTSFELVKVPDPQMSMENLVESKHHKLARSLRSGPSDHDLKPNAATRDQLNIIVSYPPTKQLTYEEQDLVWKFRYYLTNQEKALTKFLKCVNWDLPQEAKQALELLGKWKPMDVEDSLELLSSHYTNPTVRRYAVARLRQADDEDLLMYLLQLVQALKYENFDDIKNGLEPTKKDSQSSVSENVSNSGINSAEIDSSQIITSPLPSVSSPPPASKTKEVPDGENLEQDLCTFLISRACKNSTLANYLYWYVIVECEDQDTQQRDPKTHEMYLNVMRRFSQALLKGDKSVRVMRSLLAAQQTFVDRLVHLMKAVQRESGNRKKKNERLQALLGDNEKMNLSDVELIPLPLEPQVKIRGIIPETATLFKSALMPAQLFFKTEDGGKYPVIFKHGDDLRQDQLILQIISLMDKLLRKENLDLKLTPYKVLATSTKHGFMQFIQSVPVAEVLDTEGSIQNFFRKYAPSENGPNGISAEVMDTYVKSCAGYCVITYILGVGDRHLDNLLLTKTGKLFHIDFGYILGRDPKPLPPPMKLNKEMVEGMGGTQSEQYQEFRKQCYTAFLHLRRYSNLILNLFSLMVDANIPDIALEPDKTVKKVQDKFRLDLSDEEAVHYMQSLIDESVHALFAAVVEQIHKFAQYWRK

As for `Cc1c(N2CCOCC2)nc2n(c1=O)CC[C@@H](C(F)(F)F)N2CC(C)(C)O` [Example 9b, (S)-9-(2-Hydroxy-2-methyl-propyl)-3-methyl-2-(morpholin-4-yl)-8-trifluoromethyl-6,7,8,9-tetrahydro-4H-pyrimido[1,2-a]pyrimidin-4-one], the melting point worked out at 170 °C. Besides, in series [1], the IC50 is more than 0.1 µM.

`CC(C)OCCN1c2nc(N3CCOCC3)c(F)c(=O)n2CC[C@H]1C(F)(F)F` [Example 7b, (8S)-3-Fluoro-9-(2-isopropoxy-ethyl)-2-(morpholin-4-yl)-8-(trifluoromethyl)-6,7,8,9-tetrahydro-4H-pyrimido[1,2-a]pyrimidin-4-one] gave a melting point of 117 °C. Moreover, the IC50 in series [1] is less than 0.01 µM.

For the compound `CC(C)(O)CN1c2nc(N3CCOCC3)cc(=O)n2CC[C@H]1C(F)(F)F` [Example 8b, (8S)-9-(2-Hydroxy-2-methylpropyl)-2-(morpholin-4-yl)-8-(trifluoromethyl)-6,7,8,9-tetrahydro-4H-pyrimido[1,2-a]pyrimidin-4-one], in series [1], the IC50 is less than 0.01 µM.

As to `O=c1cc(N2CCOCC2)nc2n1CC[C@@H](C(F)(F)F)N2C1CCCC1` [Example 3b, (8S)-9-Cyclopentyl-2-(morpholin-4-yl)-8-(trifluoromethyl)-6,7,8,9-tetrahydro-4H-pyrimido[1,2-a]pyrimidin-4-one], the IC50 in series [1] is less than 0.01 µM.

Turning to `CC(C)OCCN1c2nc(N3CCOCC3)cc(=O)n2CC[C@@]1(C)C(F)(F)F` [Example 11Ab, (8S)-8-Methyl-2-(morpholin-4-yl)-9-(2-(propan-2-yloxy)ethyl)-8-(trifluoromethyl)-6,7,8,9-tetrahydro-4H-pyrimido[1,2-a]pyrimidin-4-one], the IC50 in series [1] was less than 0.01 µM.

As to `COCCN1c2nc(N3CCOCC3)cc(=O)n2CC12CCCC2` [Example 8a, 1′-(2-Methoxyethyl)-7′-morpholin-4-ylspiro[cyclopentane-1,2′-imidazo[1,2-a]pyrimidin]-5′-one], in series [1], the IC50 was more than 0.1 µM.

Consider `CC(C)OCCN1c2nc(N3CCOCC3)cc(=O)n2C[C@@]1(C)C(F)(F)F` [Example 4a, (S)-1-(2-Isopropoxy-ethyl)-2-methyl-7-(morpholin-4-yl)-2-(trifluoromethyl)-2,3-dihydroimidazo[1,2-a]pyrimidin-5(1H)-one], for which the melting point amounted to 88 °C. Also, in series [1], the IC50 was 0.01 to 0.1 µM.

Take `O=c1cc(N2CCOCC2)nc2n1CC[C@@H](C(F)(F)F)N2CC1CC1` [Example 2b, (8S)-9-(Cyclopropylmethyl)-2-(morpholin-4-yl)-8-(trifluoromethyl)-6,7,8,9-tetrahydro-4H-pyrimido[1,2-a]pyrimidin-4-one]: in series [1], the IC50 was less than 0.01 µM.

Compound `CC(C)(O)CN1c2nc(N3CCOCC3)cc(=O)n2C[C@@]1(C)C(F)(F)F` [Example 5a, (S)-1-(2-Hydroxy-2-methyl-propyl)-2-methyl-7-(morpholin-4-yl)-2-(trifluoromethyl)-2,3-dihydroimidazo[1,2-a]pyrimidin-5(1H)-one] displayed a melting point of 72 °C. Moreover, in series [1], the IC50 lay in the range of 0.01 to 0.1 µM.

`CC(C)OCCN1CC2(CC2)Cn2c1nc(N1CCOCC1)cc2=O` [Example 16b, 1-(2-Isopropoxyethyl)-8′-(morpholin-4-yl)-1′,2′-dihydro-spiro[cyclopropane-1,3′-pyrimido[1,2-a]pyrimidin]-6′-one]: in series [1], the IC50 was in the range of 0.01 to 0.1 µM.

Take `COCCN1c2nc(N3CCOCC3)cc(=O)n2CCC1(C)C` [Example 12b, 9-(2-Methoxyethyl)-8,8-dimethyl-2-(morpholin-4-yl)-6,7,8,9-tetrahydro-4H-pyrimido[1,2-a]pyrimidin-4-one]: in series [1], the IC50 fell in the range of 0.01 to 0.1 µM.

Regarding `CC(C)OCCN1c2nc(N3CCOCC3)cc(=O)n2CC1(C)C` [Example 7a, 1-(2-Isopropoxyethyl)-2,2-dimethyl-7-(morpholin-4-yl)-2,3-dihydroimidazo[1,2-a]pyrimidin-5(1H)-one], the IC50 in series [1] is more than 0.1 µM.

Regarding `CC(C)OCCN1c2nc(N3CCOCC3)cc(=O)n2CC[C@]1(C)C(F)(F)F` [Example 11Bb, (8R)-8-Methyl-2-(morpholin-4-yl)-9-(2-(propan-2-yloxy)ethyl)-8-(trifluoromethyl)-6,7,8,9-tetrahydro-4H-pyrimido[1,2-a]pyrimidin-4-one], in series [1], the IC50 was more than 0.1 µM.

Regarding `C[C@@]1(C(F)(F)F)Cn2c(nc(N3CCOCC3)cc2=O)N1C1CCCC1` [Example 3a, (2S)-1-Cyclopentyl-2-methyl-7-(morpholin-4-yl)-2-(trifluoromethyl)-2,3-dihydroimidazo[1,2-a]pyrimidin-5(1H)-one], the IC50 in series [1] is less than 0.01 µM.

With `CC(C)OCCN1c2nc(N3CCOCC3)cc(=O)n2CCC1(C)C` [Example 13b, 9-(2-Isopropoxyethyl)-8,8-dimethyl-2-(morpholin-4-yl)-6,7,8,9-tetrahydro-4H-pyrimido[1,2-a]pyrimidin-4-one], in series [1], the IC50 lay within 0.01 to 0.1 µM.

As to `CC(C)OCCN1c2nc(N3CCOCC3)cc(=O)n2CC12CCCC2` [Example 9a, 1′-(2-isopropoxyethyl)-7′-morpholin-4-ylspiro[cyclopentane-1,2′-imidazo[1,2-a]pyrimidin]-5′-one], the IC50 in series [1] lay within 0.01 to 0.1 µM.

The compound `COC(C)(C)CN1c2nc(N3CCOCC3)cc(=O)n2CC[C@H]1C(F)(F)F` [Example 10b, (S)-9-(2-Methoxy-2-methyl-propyl)-2-(morpholin-4-yl)-8-trifluoromethyl-6,7,8,9-tetrahydro-4H-pyrimido[1,2-a]pyrimidin-4-one] registered a melting point of 172 °C. Also, the IC50 in series [1] was in the range of 0.01 to 0.1 µM.

As to `CS(=O)(=O)CCN1c2nc(N3CCOCC3)cc(=O)n2CC[C@H]1C(F)(F)F` [Example 17b, (8S)-9-(2-Methanesulfonyl-ethyl)-2-morpholin-4-yl-8-trifluoromethyl-6,7,8,9-tetrahydro-pyrimido[1,2-a]pyrimidin-4-one], the melting point was determined as 96 °C. Further, the IC50 in series [1] is less than 0.01 µM.

For `C[C@@]1(C(F)(F)F)Cn2c(nc(N3CCOCC3)cc2=O)N1C1CC1` [Example 2a, (2S)-1-Cyclopropyl-2-methyl-7-(morpholin-4-yl)-2-(trifluoromethyl)-2,3-dihydroimidazo[1,2-a]pyrimidin-5(1H)-one], the IC50 in series [1] was less than 0.01 µM.

For `CC(C)OCCN1CC(C)(C)Cn2c1nc(N1CCOCC1)cc2=O` [Example 15b, 9-(2-Isopropoxyethyl)-7,7-dimethyl-2-(morpholin-4-yl)-6,7,8,9-tetrahydro-4H-pyrimido[1,2-a]pyrimidin-4-one], the IC50 in series [1] was more than 0.1 µM.

On to `O=c1cc(N2CCOCC2)nc2n1CC[C@@H](C(F)(F)F)N2CCOCC(F)(F)F` [Example 6b, (S)-2-(Morpholin-4-yl)-9-[2-(2,2,2-trifluoro-ethoxy)-ethyl]-8-(trifluoromethyl)-6,7,8,9-tetrahydro-4H-pyrimido[1,2-a]pyrimidin-4-one], for which the melting point amounted to 107.8 °C. In series [1], the IC50 fell in the range of 0.01 to 0.1 µM.

Turning to `CCC(CC)CN1c2nc(N3CCOCC3)cc(=O)n2C[C@@]1(C)C(F)(F)F` [Example 1a, (2S)-1-(2-Ethylbutyl)-2-methyl-7-(morpholin-4-yl)-2-(trifluoromethyl)-2,3-dihydroimidazo[1,2-a]pyrimidin-5(1H)-one], the IC50 in series [1] was less than 0.01 µM.

Regarding `COC(C)(C)CN1c2nc(N3CCOCC3)cc(=O)n2C[C@@]1(C)C(F)(F)F` [Example 6a, (S)-1-(2-Methoxy-2-methyl-propyl)-2-methyl-7-(morpholin-4-yl)-2-(trifluoromethyl)-2,3-dihydroimidazo[1,2-a]pyrimidin-5(1H)-one], the IC50 in series [1] is less than 0.01 µM.

`O=c1cc(N2CCOCC2)nc2n1CC[C@@H](C(F)(F)F)N2CCO` [Example 4b, (8S)-9-(2-Hydroxyethyl)-2-(morpholin-4-yl)-8-(trifluoromethyl)-6,7,8,9-tetrahydro-4H-pyrimido[1,2-a]pyrimidin-4-one] came in with a melting point of 117 °C. For the same compound, the IC50 in series [1] was 0.01 to 0.1 µM.

On to `COCCN1CC(C)(C)Cn2c1nc(N1CCOCC1)cc2=O` [Example 14b, 9-(2-Methoxyethyl)-7,7-dimethyl-2-(morpholin-4-yl)-6,7,8,9-tetrahydro-4H-pyrimido[1,2-a]pyrimidin-4-one], for which, in series [1], the IC50 is more than 0.1 µM.

As to `CCC(CC)CN1c2nc(N3CCOCC3)cc(=O)n2CC[C@H]1C(F)(F)F` [Example 1b, (8S)-9-(2-Ethylbutyl)-2-(morpholin-4-yl)-8-(trifluoromethyl)-6,7,8,9-tetrahydro-4H-pyrimido[1,2-a]pyrimidin-4-one], in series [1], the IC50 is less than 0.01 µM.
